# Laboratory results taken from US20080108702A1, “Use of Acetyl-Leucine for Preparing a Drug for Treating Balance Disorders” (priority 2005, published 2008).
# Columns and labels:
# [1] = system: patients with an indication for acoustic neurinoma excision or for vestibular neurotomy; test: Symptoms (vertigo and vomiting) rated by patients on 10 cm visual analog scales (VAS); format: in vivo, human
# Description: Sixty patients with an indication for acoustic neurinoma excision or for vestibular neurotomy were included and randomized. Patients were treated for 60 days either with Tanganil® (six injections of two 500 mg vials by IV route, with an interval of 12 hours between injections, the first taking place one hour after the surgery, followed by an oral treatment at a dose of two 500 mg tablets, one in the morning and one in the evening) or with a placebo. Subjective signs (vertigo and vomiting) were rated by patients on a 10 cm VAS from “absent” to “highly incapacitating”.
# [2] = system: guinea pig after unilateral labyrinthectomy; conditions: cited from earlier work
# [3] = system: patients with an indication for acoustic neurinoma excision or for vestibular neurotomy; test: Ability to maintain a standing position eight days following neurotomy (randomized, placebo-controlled); format: in vivo, human
# Description: Sixty patients with an indication for acoustic neurinoma excision or for vestibular neurotomy were included and randomized. Patients were treated for 60 days either with Tanganil® (six injections of two 500 mg vials by IV route, with an interval of 12 hours between injections, the first taking place one hour after the surgery, followed by an oral treatment at a dose of two 500 mg tablets, one in the morning and one in the evening) or with a placebo.
# Vestibular deficit was measured according to the methods described in Vertigo and the practitioner [Les vertiges et le praticien] by P. Tran Ba Huy and C. De Waele (Coll Pathologie Sciences Formation [in French], Ed. John Libbey Eurotext, Paris, 1996) and in Vertigo [Les vertiges] by G. Rancurel, O. Sterkers, E. Vitte, foreword by G. Freyss (Ed. Méd. Spécia. [in French], 1989).
# Vestibular reflex was tested at day zero (D0) before neurotomy by caloric testing to objectivize vestibular hyporeflexia or areflexia. This test consists of successively irrigating with warm water then cold the right external auditory meatus then the left, causing in the semicircular canal an endolymph current which moves the ampullary crest. Caloric response is expressed by the appearance of a nystagmus that beats toward the side of the stimulated ear when warm water is applied and toward the opposite side when cold water is applied. The nystagmic response was recorded by video nystagmography and its frequency calculated, i.e., the number of nystagmic beats occurring between the 60th and 90th seconds following the initiation of stimulation. This number quantifies the vestibular response.
# The difference in responses between one ear and the other expresses so-called hypovalence, i.e., the difference between the warm and cold responses on the left side and the warm and cold responses on the right side, divided by the total number of responses. In normal subjects, hypovalence is less than 15%. Hypovalence is the main sign of damage to the peripheral vestibular apparatus.
# The principle criterion was “able to maintain a standing position at D8” (Yes/No)
# vertigo symptomatology = conditions: clinical results reported by various authors; cited from earlier work
# [4] = system: cats having undergone vestibular neurotomy; conditions: oral route, 28 mg per kg per day; cats after vestibular neurotomy; cited from earlier work
# [5] = system: patients with an indication for acoustic neurinoma excision or for vestibular neurotomy; test: Balance evaluated by static posturography; format: in vivo, human
# Description: Sixty patients with an indication for acoustic neurinoma excision or for vestibular neurotomy were included and randomized. Patients were treated for 60 days either with Tanganil® (six injections of two 500 mg vials by IV route, with an interval of 12 hours between injections, the first taking place one hour after the surgery, followed by an oral treatment at a dose of two 500 mg tablets, one in the morning and one in the evening) or with a placebo. Static posturography (not performed at D8 if the subject could not remain standing) was carried out in a standing position under four conditions (eyes open or closed, with or without foam carpeting). With foam carpeting and/or eyes closed, patients are placed under conditions which minimize the role of visual and proprioceptive information. Shifts in a subject's center of gravity during a given time period are recorded in a statokinesigram. This plot makes it possible to study oscillation amplitudes and surface areas. “Anteroposterior” oscillations can be separated from “right-left” oscillations.
# [6] = system: surgical unilateral neurotomy model in the cat; test: Surgical unilateral neurotomy model (preliminary tests); format: in vivo
# [7] = system: mouse median vestibular neurons (MVN); test: Electrophysiological study in current clamp mode on median vestibular neurons; format: cell-based; conditions: for effect on action potentials of depolarized neurons: depolarized neurons (approximately −35 mV), after several minutes of application; for Membrane potential: hyperpolarized neurons (approximately −70 mV); for Action potential frequency / Action potential height / Depolarization threshold / Resting potential: neurons spontaneously active at the resting potential
# Description: An electrophysiological study was conducted on mouse median vestibular neurons (MVN) in which the membrane potential was artificially maintained at various resting values. In this study, the effects of the D and L enantiomers of acetyl-leucine (1 mM) were tested on the membrane properties of neurons in “current clamp” mode at various membrane potential values: normal membrane potential (approximately −45 mV), potential maintained at a hyperpolarized level of approximately −70 mV or potential maintained at a depolarized level of approximately −35 mV.
smiles,measurement,setting,value
"CC(=O)N[C@@H](CC(C)C)C(=O)O (racemic) [Tanganil®, acetyl-leucine]",average change on the vertigo VAS,"[1]; D8, vestibular deficit less than or equal to 75%",−23.5 mm
same,difference vs placebo on vertigo VAS,"[1]; D8, vestibular deficit less than or equal to 75%, Wilcoxon test p=0.037",statistically significant difference
same,difference vs placebo on vomiting VAS,[1]; vestibular deficit greater than 75%,No significant difference
same,difference vs placebo on vertigo VAS,"[1]; vestibular deficit greater than 75%, Wilcoxon test p=0.154",no significant difference
same,effect on vomiting VAS vs placebo,"[1]; vestibular deficit less than or equal to 75%, significant difference between the two groups",reduction in vomiting severity
same,effect on vestibular compensation,[2]; after unilateral labyrinthectomy in the guinea pig,accelerate vestibular compensation
same,effect on normal vestibular functioning,[2]; guinea pig,no effect
same,"difference between the two treatment groups, able to maintain a standing position at D8",[3]; 25 patients whose vestibular deficit was greater than 75%,no significant difference
same,"difference between the two treatment groups, able to maintain a standing position at D8","[3]; 31 patients whose vestibular deficit was less than or equal to 75%, χ^2=0.048",statistically significant difference
same,effect on compensation after neurotomy,[3]; patient population exhibiting no vestibular functioning before neurotomy,no effect
same,effect on compensation after neurotomy,[3]; patients exhibiting residual vestibular functioning,accelerates the compensation
same,"difference between Tanganil and placebo, able to maintain a standing position at D8",[3]; principle analysis of 49 patients,no statistically significant difference
same,patients able to maintain a standing position at D8,"[3]; principle analysis of 49 patients, 13 of 22 patients given Tanganil, IV then oral treatment",59.1%
same,patients able to maintain a standing position at D8,"[3]; subgroup with vestibular deficit less than or equal to 75%, 12 of 16 patients",75%
same,"cases with improvement in vertigo symptomatology, including the disappearance of vertigo attacks",vertigo symptomatology,more than 95%
same,effect on recovery of locomotor equilibrium,[4],facilitates the recovery of locomotor equilibrium
same,"static posturography, difference vs placebo","[5]; D8, vestibular deficit greater than 75%, eyes open or closed and/or with or without foam",either no significant difference was observed between Tanganil® and the placebo or a significant difference was observed between the two groups in favor of the placebo
same,right/left posturography (postural oscillations),"[5]; D8, vestibular deficit less than or equal to 75%, with foam, eyes open, p=0.034 vs placebo",+7.9 mm
same,"right/left posturography, difference vs placebo","[5]; D8, without foam, eyes open test",no significant difference
same,"static posturography, difference vs placebo","[5]; vestibular deficit less than or equal to 75%, regardless of experimental conditions",significant difference between treatment groups in favor of Tanganil®
same,right/left posturography (postural oscillations),"[5]; vestibular deficit less than or equal to 75%, with foam, eyes closed, p=0.016 vs placebo",+5.4 mm
same,right/left posturography (postural oscillations),"[5]; vestibular deficit less than or equal to 75%, without foam, eyes closed, p=0.028 vs placebo",+2.8 mm
CC(=O)N[C@H](CC(C)C)C(=O)O [Acetyl-D-leucine],activity in surgical unilateral neurotomy model,[6],active
same,effect on action potentials of depolarized neurons,[7]; 1 mM,action potentials stop due to blocking of the membrane potential at a more depolarized level
same,Membrane potential,[7]; before application (baseline),−72.2 ± 5.2 mV
same,Membrane potential,"[7]; during application, 1 mM",−67.2 ± 4.6 mV
same,effect on the membrane potential of hyperpolarized neurons,"[7]; hyperpolarized neurons, 1 mM",significantly increases
same,Action potential frequency,[7]; before application (baseline),11.5 ± 6.8 Hz
same,Action potential height,[7]; before application (baseline),59.0 ± 7.7 mV
same,Depolarization threshold,[7]; before application (baseline),−28.1 ± 4.5 mV
same,Resting potential,[7]; before application (baseline),−42.7 ± 3.6 mV
same,Action potential frequency,"[7]; during application, 1 mM",8.9 ± 7.7 Hz
same,Action potential height,"[7]; during application, 1 mM",50.7 ± 17.3 mV
same,Depolarization threshold,"[7]; during application, 1 mM",−27.0 ± 10.2 mV
same,Resting potential,"[7]; during application, 1 mM",−42.0 ± 3.6 mV
CC(=O)N[C@@H](CC(C)C)C(=O)O [Acetyl-L-leucine],activity in surgical unilateral neurotomy model,[6],active
same,effect on action potentials of depolarized neurons,[7]; 1 mM,not observed
same,Membrane potential,[7]; before application (baseline),−70.0 ± 2.1 mV
same,Membrane potential,"[7]; during application, 1 mM",−71.6 ± 3.2 mV
same,Action potential frequency,[7]; before application (baseline),14.1 ± 9.0 Hz
same,Action potential height,[7]; before application (baseline),59.0 ± 7.3 mV
same,Depolarization threshold,[7]; before application (baseline),−30.4 ± 5.6 mV
same,Resting potential,[7]; before application (baseline),−44.5 ± 2.1 mV
same,Action potential frequency,"[7]; during application, 1 mM",12.4 ± 7.8 Hz
same,Action potential height,"[7]; during application, 1 mM",49.8 ± 11.4 mV
same,Depolarization threshold,"[7]; during application, 1 mM",−27.7 ± 8.4 mV
same,Resting potential,"[7]; during application, 1 mM",−42.7 ± 3.7 mV
